Experimental findings from patent US5824670A, “17-deoxycorticosteroid-21-[O]carboxylic esters, processes for their preparation and pharmaceuticals containing these compounds” (priority 1994, dated 1998) are described below.

In one series the test system is carrageenin paw edema. Nature of the series: Systemic activity following subcutaneous administration in the carrageenin paw edema test in rats. Type of series: in vivo, Male Sprague-Dawley rats. The settings on record: for Increase at 3 h (paw volume) / Increase at 6 h (paw volume): x ± s, * = p<0.05 Dunnett. The procedure:
2a. Testing for systemic activity following subcutaneous administration in the carrageenin paw edema test in rats The method was described by Winter, C. A. et al. in Proc. Soc. exp. Biol. (N.Y.), 111, 544, (1962). Male Sprague-Dawley rats of approximately 200 g body weight, and in group sizes of n=5, were given the substances subcutaneously (0.2 ml/100 g of body weight, dissolved in sesame oil). Controls were given sesame oil alone. 15 minutes later, 0.1 ml of a 0.5% solution of carrageenin was injected into the left hind paw. Prior to this, and at 3 h and 6 h afterwards, the paw volume was measured (ml) and the increase in swelling was ascertained by comparing with the preliminary value. The numbers are mean value and standard deviation (x±s). Statistical significance was assessed using the Dunnett test.

In series [1] the test system is Gluconeogenesis (liver glycogen and glucose). Description: Systemic effect: Gluconeogenesis in rats. Type of series: in vivo, Male Sprague-Dawley rats. The procedure: 2b. Testing for systemic effect: Gluconeogenesis in rats
Male Sprague-Dawley rats of approximately 140 g in weight were adrenalectomized. They were given an 0.9% solution of sodium chloride as their drinking water. 48 h later, the animals' feed was removed for 24 h. On the day of the experiment (3 days after adrenalectomy and 1 day of starvation), the experimental preparations were administered s.c. (2 ml/kg in sesame oil, with controls only receiving this vehicle). The animals were decapitated 6 h later, with 1 g of liver being removed in each case. The sample was taken up in 5 ml of 0.6M perchloric acid. Following homogenization and centrifugation, glucose was determined in the supernatant. The precipitate (glycogen) was hydrolyzed enzymically with amyloglucosidase, and glucose was also determined in the resulting hydrolysate (hexokinase test kit, from Boehringer Mannheim).

In series [2] the test system is allergic inflammation of the delayed type (oxazolone ear edema). Description: Local antiinflammatory effect in oxazolone ear edema in mice following epicutaneous application. The format is in vivo, male NMRI mice. To be noted: for inflammatory edematous swelling, difference between right and left auricle weights (x ± s) / Inhibition in %: 24 h; for inflammatory edematous swelling, difference between right and left auricle weights (x ± s): mice; for Inhibition in %: vs control. The source says:
1. Local antiinflammatory effect in oxazolone ear edema in mice following epicutaneous application.
The method described by Evans, D. P. et al., Br. J. Pharmacol 43, 403 (1971) was used. In mice, 4-ethoxy-methylene-2-phenyl-2-oxazoline (oxazolone) produces an allergic inflammation of the delayed type which can be inhibited by corticosteroids. The experimental animals employed are male NMRI mice of 25 g body weight which are divided into groups of 10 animals each. The animals were sensitized by applying 0.1 ml of a 2% solution of oxazolone in acetone to the shaven skin of the abdomen. On the 9th day following this sensitization, the allergic inflammation was triggered by applying 10 μl of a 2% solution of oxazolone/acetone to the inner side of the right ear auricle (control group). In the treated groups, the abovementioned solution contained the test preparations. 24 hours after applying the solutions, the animals were killed with CO2. A circular sample, measuring 8 mm, was punched out from each of the treated right ear auricle and the untreated left ear auricle. The samples were weighed immediately, with the difference between the right and left auricle weights representing the measure of the degree of inflammation. This inflammatory edematous swelling, in mg, was set to equal 100% in the control group, and the inflammation-inhibiting effect of the preparations is given as the percentage inhibition as compared with the control.

For `C[C@@H]1C[C@H]2[C@@H]3CCC4=CC(=O)C=C[C@]4(C)[C@@]3(F)[C@@H](O)C[C@]2(C)[C@H]1C(=O)COC(=O)/C=C/c1ccccc1` [Cmpnd. I, Deoxymethasone 21-cinnamic ester], in the series on carrageenin paw edema (0.1 mg/kg s.c.), the “effect on paw edema (in words)” value is reported as “does not”, the “Increase at 3 h (paw volume)” value was 0.40 ± 0.06 mL and the “Increase at 6 h (paw volume)” value is 0.39 ± 0.12 mL. Further, in the series on carrageenin paw edema (0.3 mg/kg s.c.), the “effect on paw edema (in words)” value is “practically without effect”, the “Increase at 3 h (paw volume)” value is 0.46 ± 0.12 mL and the “Increase at 6 h (paw volume)” value amounted to 0.32 ± 0.05 mL. In series [1] (rat, in vivo), the “advantage (factor) over deoxymethasone regarding gluconeogenic effect” value is recorded as 3-10. For the same compound, in series [2] (0.03 mg/ml epicutaneous), the “inflammatory edematous swelling, difference between right and left auricle weights (x ± s)” value is reported as 7.7 ± 3.7 mg; the Inhibition in % is listed as 43%. Further, in series [2] (0.1 mg/ml epicutaneous), the “inflammatory edematous swelling, difference between right and left auricle weights (x ± s)” value is on record as 3.9 ± 2.9 mg; the Inhibition in % was 71%. In series [2] (0.3 mg/ml epicutaneous), the “inflammatory edematous swelling, difference between right and left auricle weights (x ± s)” value came out at 2.3 ± 1.3 mg; the Inhibition in % was found to be 83%. Besides, the “local antiinflammatory effect (in words)” value in series [2] (mouse, in vivo) was “strong, local antiinflammatory effect”.
On to `C[C@@H]1C[C@H]2[C@@H]3CCC4=CC(=O)C=C[C@]4(C)[C@@]3(F)[C@@H](O)C[C@]2(C)[C@H]1C(=O)CO` [Deoxymethasone, 9α-fluoro-16α-methyl-1(2)-dehydrocorticosterone], for which, in the series on carrageenin paw edema (0.1 mg/kg s.c.), the “effect on paw edema (in words)” value is listed as “significant effect”, the “Increase at 3 h (paw volume)” value worked out at 0.28 mL and the “Increase at 6 h (paw volume)” value turned out to be 0.23 ± 0.09 mL. Further, in the series with carrageenin paw edema (0.3 mg/kg s.c.), the “effect on paw edema (in words)” value is reported as “almost completely inhibits the inflammation”, the “Increase at 3 h (paw volume)” value is 0.17 mL and the “Increase at 6 h (paw volume)” value worked out at 0.03 ± 0.03 mL. Moreover, in series [1] (0.1 mg/kg, p<0.05, Dunnett's test), the “gluconeogenic effect (in words)” value is given as “already exhibits this undesirable effect”. Moreover, in series [2] (0.03 mg/ml epicutaneous), the “inflammatory edematous swelling, difference between right and left auricle weights (x ± s)” value was 8.6 ± 3.1 mg; the Inhibition in % worked out at 36%. Besides, in series [2] (0.1 mg/ml epicutaneous), the “inflammatory edematous swelling, difference between right and left auricle weights (x ± s)” value came to 3.9 ± 3.0 mg; the Inhibition in % was determined as 71%. For the same compound, in series [2] (0.3 mg/ml epicutaneous), the “inflammatory edematous swelling, difference between right and left auricle weights (x ± s)” value stood at 2.8 ± 2.3 mg; the Inhibition in % stood at 79%.
